For 15 molecules, inhibition results are on record in patent US10227345B2, “Compounds and methods for inhibiting fascin” (Cornell University, priority 2014, dated 2019).

This assay addresses T1, human fascin 1 (Homo sapiens, UniProt Q16658).
T1 construct: GST (N, cleaved yes); made in house; host or cells: Escherichia coli BL21/DE3 (pGEX4T-fascin 1 plasmid)
Kind of assay: Fascin inhibition (actin bundling) assay, image-based. The conditions noted are these: in the presence of 50 μm of the compound relative to bundle activity when the compound was not present; read-out: Inhibition (percentage reduction of bundle activity). It counts as biochemical. In a few lines:
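GST-tagged human fascin 1 from E. coli, thrombin-cleaved, was preincubated with compounds for 30 min, then polymerized actin was added; compounds were at 30 μM final. Bundles captured on poly-D-lysine plates were imaged, and background-corrected bundle length per well was computed, with DMSO-only wells as negative controls.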

In general, inhibition refers to the drop in the measured response relative to a control, in per cent.

For `Cc1occc1C(=O)Nc1nn(Cc2ccc(C(F)(F)F)nc2)c2ccc(C#N)cc12` [Compound 100, N-(5-cyano-1-((6-(trifluoromethyl)pyridin-3 - yl)methyl)-1H-indazol-3-yl)-2-methylfuran-3-carboxamide], the inhibition at 50 µM was under 10%.
For `COc1cscc1C(=O)Nc1nn(Cc2ccc(C(F)(F)F)cc2)c2ccccc12` [Compound 51, 4-methoxy-N-(1-(4-(trifluoromethyl)benzyl)-1H-indazol-3-yl)thiophene-3-carboxamide], the inhibition at 50 µM was under 10%.
As for `Nc1nn(Cc2ccc(C(F)(F)F)cc2)c2cc(C(F)(F)F)ccc12` [Compound 106, 6-(trifluoromethyl)-1-(4-(trifluoromethyl)benzyl)-1H-indazol-3-amine], the inhibition at 50 µM is under 10%.
The same measure for `Cc1ncsc1C(=O)Nc1nn(Cc2ccc(C(F)(F)F)nc2)c2ccc(C#N)cc12` [Compound 101, N-(5-cyano-1-((6-(trifluoromethyl)pyridin-3-yl)methyl)-1H-indazol-3-yl)-4-methylthiazole-5-carboxamide]: under 10%; for `O=C(Nc1nn(Cc2ccc(C(F)(F)F)cc2)c2ccccc12)c1cscc1Br` [Compound 42, 4-bromo-N-(1-(4-(trifluoromethyl)benzyl)-1H-indazol-3-yl)thiophene-3-carboxamide]: under 10%.
Then `Cc1csc(C(=O)Nc2nn(Cc3ccc(C(F)(F)F)cc3)c3ccccc23)n1` [Compound 11, 4-methyl-N-(1-(4-(trifluoromethyl)benzyl)-1H-indazol-3-yl)thiazole-2-carboxamide], with under 10%; and `O=C(Nc1nn(Cc2ccc(C(F)(F)F)nc2)c2cccc(Cl)c12)c1cccnn1` [Compound 121, N-(4-chloro-1-((6-(trifluoromethyl)pyridin-3-yl)methyl)-1H-indazol-3-yl)pyridazine-3-carboxamide], with under 10%; and `O=C(Nc1nn(Cc2ccc(C(F)(F)F)nc2)c2ccccc12)c1ccoc1` [Compound 92, N-(1-((6-(trifluoromethyl)pyridine-3-yl)methyl)-1H-indazol-3-yl)furan-3-carboxamide], with under 10%.
As for `Cc1ccc2c(NC(=O)c3cccnn3)nn(Cc3ccc(C(F)(F)F)nc3)c2n1` [Compound 136, N-(6-methyl-1-((6-(trifluoromethyl)pyridin-3-yl)methyl)-1H-pyrazolo[3,4-b]pyridin-3-yl)pyridazine-3-carboxamide], the inhibition at 50 µM is under 10%.
The same measure for `O=C(Nc1nn(Cc2ccc(C(F)(F)F)cc2)c2ccccc12)c1cc(F)ccc1F` [Compound 21, 2,5-difluoro-N-(1-(4-trifluoromethyl)benzyl)-1H-(indazol-3-yl)benzamide]: under 10%; for `N#Cc1ccc(Cn2nc(NC(=O)c3ccno3)c3ccccc32)cc1` [Compound 87, N-(1-(4-cyanobenzyl)-1H-indazol-3-yl)isoxazole-5-carboxamide]: under 10%; for `O=C(Nc1nn(Cc2ccc(C(F)(F)F)cc2)c2ccccc12)c1cnccn1` [Compound 53, N-(1-(4-(trifluoromethyl)benzyl)-1H-indazol-3-yl)pyrazine-2-carboxamide]: under 10%.
As for `O=C(Nc1nn(Cc2ccc(C(F)(F)F)cc2)c2ccc(C(F)(F)F)cc12)c1ccoc1` [Compound 123, N-(5-(trifluoromethyl)-1-(4-(trifluoromethyl)benzyl)-1H-indazol-3-yl)furan-3-carboxamide], the inhibition at 50 µM was under 10%.
Then `Cc1cc(C(=O)Nc2nn(Cc3ccc(C(F)(F)F)cc3)c3ccccc23)oc1C` [Compound 1, 4,5-dimethyl-N-(1-(4-(trifluoromethyl)benzyl)-1H-indazol-3-yl)furan-2-carboxamide], with under 10%.
Then `Cc1occc1C(=O)Nc1nn(Cc2ccc(C(F)(F)F)cc2)c2ccc(C(F)(F)F)cc12` [Compound 125, 2-methyl-N-(5-(trifluoromethyl)-1-(4-(trifluoromethyl)benzyl)-1H-indazol-3-yl)furan-3-carboxamide], with under 10%.
